Assay results reported in article PMC7785802, “Therapeutic Efficacy of a Trichinella Spiralis Paramyosin-Derived Peptide Modified With a Membrane-Targeting Signal in Mice With Antigen-Induced Arthritis” (Frontiers in Microbiology, 2020).

Tests used:
[1] = system: normal mouse knee joint cavity; test: Peptide retention in normal mouse joint cavities (immunofluorescence); type: in vivo; conditions: biotin-labeled peptide, 10 μg in 10 μl PBS intraarticular, normal mice; for staining of joint cavity after intraarticular injection: 12, 24, 48 h, streptavidin-FITC, one mouse per time point
Protocol: As previous studies reported, immunofluorescence assay was used to assess the retention time of the peptides in normal mouse joint cavities (Williams et al., [2004]). The normal mice were divided into original and modified peptide groups and treated with the corresponding peptides [10 μg in 10 μl PBS by intraarticular (IA) injection respectively. At 12, 24, and 48 h after injection, a single mouse from each group was randomly chosen and sacrificed under anesthesia (1% sodium pentobarbital, 50 mg/kg)]. Knee joints were dissected, fixed in 4% paraformaldehyde, and decalcified with decalcification solution (0.5 M EDTA, pH 8.0) before embedding in paraffin. Midsagittal serial sections (7 μm in thickness) were cut and peptide retention was assessed using streptavidin-FITC (eBioscience) (1:100 in PBS) followed by fluorescent microscopy (Leica).
Figure 4 Retention time of the modified peptide in the joint cavities was prolonged. The biotin-labeled original or modified peptide was injected into the knee joint and then the knee joints were dissected at 12, 24, and 48 h and probed with streptavidin-FITC in immunofluorescence assays.

[2] = system: membrane attack complex (MAC); test: MAC (C9) deposition in AIA knee joints (immunofluorescence); type: in vivo; conditions: 40 μg peptide + 25 μg mBSA intraarticular; day 3 post-AIA induction; anti-mouse C9 immunofluorescence; n = 6
Protocol: AIA was induced in male C57BL/6J wildtype mice (8–10 weeks of age) according to a previously described protocol (Ebbinghaus et al., [2017]) with minor modifications. Briefly, the mice were intraperitoneally injected with 200 ng pertussis toxin (List Biological Laboratories, California, USA) prior to being subcutaneously immunized with 100 μg methylated bovine serum albumin (mBSA; Sigma-Aldrich, St. Louis, Missouri, USA) emulsified in Freund's complete adjuvant (Sigma-Aldrich). The immune response was boosted with identical subcutaneous mBSA immunizations at 14 and 21 days after the first immunization. […] Every day after AIA induction (and intraarticular peptide treatment), the difference in the joint diameter (swelling in mm) between the right and left knee joints in each mouse was assessed using a digital micrometer to evaluate the AIA severity. Each joint was measured three times and the mean diameter was calculated and recorded. […]
To assess the therapeutic effects of the peptides on AIA, the mice were euthanized on day 3 post-AIA induction. […] The degree of histopathologic tissue damage was quantified using the following previously described cumulative score for evaluating disease severity (Durigutto et al., [2013]). […]

C9 / MAC = conditions: previous study; ref Zhao et al., 2014; cited from earlier work
Source text: Paramyosin, a dimeric fibrillar protein, not only forms the thick myofilaments of invertebrate muscle, but also occurs on the surface of helminths and serves as a potential modulator of the host immune system by interacting with human collagen, calgranulin and so on (Zhao et al., [2014]).

[3] = system: mice with antigen-induced arthritis (AIA); test: Histology (HE) of AIA knee joints; type: in vivo, mouse; conditions: for synovial histology (HE): 40 μg peptide + 25 μg mBSA intraarticular, day 3 post-AIA induction, n = 6
Protocol: (§1) AIA was induced in male C57BL/6J wildtype mice (8–10 weeks of age) according to a previously described protocol (Ebbinghaus et al., [2017]) with minor modifications. Briefly, the mice were intraperitoneally injected with 200 ng pertussis toxin (List Biological Laboratories, California, USA) prior to being subcutaneously immunized with 100 μg methylated bovine serum albumin (mBSA; Sigma-Aldrich, St. Louis, Missouri, USA) emulsified in Freund's complete adjuvant (Sigma-Aldrich). The immune response was boosted with identical subcutaneous mBSA immunizations at 14 and 21 days after the first immunization. At 28 days after the initial immunization, the right knee joint of each mouse was intraarticularly injected with 10 μl PBS as the control, while the left knee joint received either 10 μl PBS only (normal group), 25 μg mBSA (to induce AIA) in 10 μl PBS (AIA-only group), 40 μg modified peptide with 25 μg mBSA in 10 μl PBS (modified peptide+AIA group), or 40 μg original peptide with 25 μg mBSA in 10 μl PBS (original peptide+AIA group). Every day after AIA induction (and intraarticular peptide treatment), the difference in the joint diameter (swelling in mm) between the right and left knee joints in each mouse was assessed using a digital micrometer to evaluate the AIA severity. Each joint was measured three times and the mean diameter was calculated and recorded. […]
To assess the therapeutic effects of the peptides on AIA, the mice were euthanized on day 3 post-AIA induction. […] The degree of histopathologic tissue damage was quantified using the following previously described cumulative score for evaluating disease severity (Durigutto et al., [2013]). […] Additionally, according to the immunofluorescence protocol, tissue deposition of MAC was assessed by immunofluorescence assay with incubating rabbit anti-mouse C9 IgG (Sigma-Aldrich) at a 1:200 dilution overnight at 4°C followed by incubation with FITC-labeled goat anti-rabbit IgG (DAKO, Glostrup, Denmark) at a 1:200 dilution for an additional 60 min at room temperature (Lei et al., [2020]). […]

[4] = system: mice with antigen-induced arthritis (AIA); test: Knee joint swelling in antigen-induced arthritis (AIA); type: in vivo, mouse; conditions: 40 μg peptide + 25 μg mBSA in 10 μl PBS intraarticular; days 2, 3 and 4 after induction; n = 6; **p < 0.01
Protocol: as §1

Substance	staining of joint cavity after intraarticular injection [1]	MAC deposition in synovial connective tissue [2]	inhibition of MAC assembly (C9 / MAC)	synovial histology (HE) [3]	retention time on synovial lining ([1]; 48 h is last time point) [h]	joint swelling (left vs right knee diameter) compared to AIA-only mice [4]	histopathological scores ([3]; 40 μg peptide intraarticular at the time of AIA induction, cumulative score (synovial hyperplasia, leukocyte infiltration, fibrosis), no numbers given)
VSMGKSLSSKVYVM [original peptide, tetradecapeptide derived from Trichinella spiralis paramyosin (Ts-pmy)]	no staining	clearly detected	inhibited the assembly of MAC	severe edema, hyperplasia, and inflammatory cell infiltration compared to normal joints	–	–	–
Myr-GSSKSPSKKKKKKPG-ACP-VSMGKSLSSKVYVM [modified peptide, Ts-pmy-derived peptide modified with a membrane-targeting signal]	intense staining along the synovial lining even at 48 h after injection	significantly weaker	–	milder synovial hyperplasia and inflammatory cell infiltration compared to the AIA-only or original peptide+AIA mice	≥ 48	significant reductions in joint swelling on days 2, 3, and 4 after disease induction	significantly decreased
